Results reported in ChEMBL document CHEMBL5725333, “Fumagillol heterocyclic compounds and methods of making and using same” (2017).

Molecular target: Methionine aminopeptidase 2 (Homo sapiens, UniProt P50579)
Assay: 10 mM stock solutions of compounds were prepared in 100% DMSO and further diluted in 100% DMSO required concentration to 1 mM stocks. The stock compound solutions and DMSO vehicle controls were diluted to target final compound concentrations using assay buffer to a final concentration of 50 mM HEPES containing 100 mM NaCl, pH adjusted to 7.5. The MAS peptide was formulated to a 7.5 mM stock in distilled water and prior to use further diluted 1:4. […] 40 μl of enzyme was mixed with 100 μl of MnCl2 then further diluted in assay buffer to a final concentration of 16 μg/ml. To test for compound effect on MetAP2 enzyme activity, 5 μl of test compound, 10 μl of MAS substrate/amino acid oxidase mixture, 10 μl of MetAP2 was added to test wells in a 384 well black plate with blank wells containing no enzyme, replaced with 10 μl of assay buffer. All compounds were tested in duplicate on two occasions on the same day. […] The plate was sealed with a TopSeal A cover and mixed briefly on an orbital mixer at 900 rpm. The plate was incubated for a further 25 minutes at 25° C. A 5× stock of Amplex buffer was prepared (0.25M sodium phosphate, pH 7.4) and stored at 4° C. […] 25 μl detection reagent was added to each well of the test plate, which was re-sealed and mixed briefly on an orbital shaker.

Sequence of Methionine aminopeptidase 2 (P50579 whole entry): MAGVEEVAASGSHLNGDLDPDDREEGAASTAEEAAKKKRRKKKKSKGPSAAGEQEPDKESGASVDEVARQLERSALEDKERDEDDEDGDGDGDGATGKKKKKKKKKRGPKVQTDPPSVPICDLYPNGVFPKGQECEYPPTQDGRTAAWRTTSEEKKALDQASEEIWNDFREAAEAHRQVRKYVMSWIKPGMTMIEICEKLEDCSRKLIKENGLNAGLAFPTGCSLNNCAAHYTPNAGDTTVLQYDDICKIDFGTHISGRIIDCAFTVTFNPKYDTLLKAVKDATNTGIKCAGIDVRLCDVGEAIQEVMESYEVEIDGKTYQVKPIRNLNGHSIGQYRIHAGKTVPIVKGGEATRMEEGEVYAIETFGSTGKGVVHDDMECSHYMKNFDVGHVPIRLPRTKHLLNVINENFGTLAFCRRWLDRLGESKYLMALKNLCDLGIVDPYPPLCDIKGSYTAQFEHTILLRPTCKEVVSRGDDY

Row | IC50 [nM] | SMILES
1 | < 50 | CO[C@@H]1[C@H](OC(=O)N2CC(CCN3CCCC3)C2)CC[C@]2(CO2)[C@H]1[C@@]1(C)O[C@@H]1CC=C(C)C
2 | < 50 | CCN(CC)CCNC(=O)OCC1CN(C(=O)O[C@@H]2CC[C@]3(CO3)[C@@H]([C@@]3(C)O[C@@H]3CC=C(C)C)[C@@H]2OC)C1
